Legend:
[1] = test system: gamma oscillations in mouse hippocampal slices; assay: Prevention of Aβ-induced degradation of kainate-induced gamma oscillations in hippocampal slices (interface chamber); assay type: cell-based; settings: 50 nM Aβ in last 15 min, 100 nM KA
Protocol: Previously we have characterized the effects of acute Aβ on the hippocampal circuitry of WT mice. […] During the last 15 min 50 nM Aβ was added to the incubation solution. […] Control experiments were also performed by incubating slice just with ACSF for 1 h (with Aβ present for the last 15 min) or incubating just with ACSF for 1 h. […] Pmzd 10 μM: 9.95±1.82×10^-9V^2, n=10, p<0.0001 vs Aβ, FIGS. 4A,B,C,F, light and dark green, respectively). […] Horizontal sections (350 μm thick) of the ventral hippocampi of both hemispheres were prepared with a Leica VT1200S vibratome (Leica Microsystems). Immediately after cutting, slices were transferred into a humidified interface holding chamber containing standard ACSF (in mM): 124 NaCl, 30 NaHCO3, 10 glucose, 1.25 NaH2PO4, 3.5 KCl, 1.5 MgCl2, 1.5 CaCl2, continuously supplied with humidified carbogen. The chamber was held at 34° C. during slicing and subsequently allowed to cool down to room temperature ( 22° C.) for a minimum of 1 hour. Recordings were carried out in hippocampal area CA3 with borosilicate glass microelectrodes, pulled to a resistance of 3-7 MΩ. Local field potential (LFP) were recorded using microelectrodes filled with ACSF placed in CA3 stratum pyramidale. LFP oscillations were elicited by applying kainic acid (100 nM) to the extracellular bath, Interface chamber LFP recordings were performed with a 4-channel […] amplifier (University of Cologne, Germany). Submerged chamber LFP recordings and patch-clamp recordings were performed using a Multiclamp 700B (Molecular Devices, CA, USA). In order to maintain stable LFP oscillations all recordings were performed at 34° C. with a perfusion rate of 3-5 ml per minute of aerated ACSF containing 100 nM Kainate. The oscillations were allowed to stabilize for at least 20 minutes before any recordings were performed. Power spectra density plots (from 60 s long LFP recordings) were calculated in averaged Fourier-segments of 8192 points using Axograph X (Kagi, Berkeley, Calif., USA). […] Coefficient of rhythmicity (Cr) was calculated in order to assess the rhythmicity of gamma oscillations (26, 27) and was defined as Cr=(α-β)/(α+β) were α corresponds to the value of the height of the second peak and β to the first valley in the normalized autocorrelogram. […] Only recordings having Cr≥0.01 were considered rhythmic.

[2] = test system: gamma oscillations in mouse hippocampal slices; assay: Rescue of gamma oscillations previously degraded by Aβ in hippocampal slices (submerged chamber); assay type: cell-based; settings: Aβ still present
Protocol: Hippocampal slices were placed in a submerged recording chamber where gamma oscillations were induced by bath perfusion of 100 nM KA and allowed to stabilize for 20-30 min. Continuous recordings of LFP gamma oscillations were performed in 4 different conditions (FIG. 5). All groups were initially activated with Kainate. In a control group of slices oscillations were recorded for 40 min after stabilization without any other compound addition (control, n=5, grey). All other groups were perfused with 1 μM Aβ after stabilization of the oscillations for a minimum of 20 min. For these experiments the concentration of Aβ applied was increased to 1 μM in order to overcome the method-dependent lower signal amplitude due to the submerged recording conditions (8).
Hippocampal slices were placed on a submerged recording chamber where gamma oscillations were induced by bath perfusion of 100 nM Kainate and allowed to stabilize for 20-30 minutes. Continuous recordings of LFP gamma oscillations were performed in 3 different conditions. All groups were initially activated with kainate. In a control group of slices oscillations were recorded for 40 minutes after their stabilization without any other compound addiction (control, n=5; see FIG. 5). All the other groups were perfused with Aβ 1 μM after the stabilization of the oscillations for a minimum of 20 minutes.

Compound: Clc1ccc(N2CCN(Cc3c[nH]c4ncccc34)CC2)cc1 [L745,870]
- gamma oscillation power ([1]; 1 h incubation with 500 nM compound): 1.61±0.52 ×10^−9V^2

Compound: CC(C)(C)CCN1C[C@@H]2[C@@H](CNC(=O)c3cc(Cl)cc(Cl)c3)[C@@H]2C1 [ML-218]
- gamma power after treatment application, relative to Aβ ([2]; 5 μM compound applied after 20 min of 1 μM Aβ): 2.16±0.53 of Aβ

Compound: CC1CCN(CC[C@H]2CCCN2S(=O)(=O)c2cccc(O)c2)CC1 [SB-269970, ®-3-(2-(2-(4-methylpiperidin-1-yl)ethil)pyrrolidine-1-sulfonyl) phenol]
- gamma oscillation power ([1]; 1 h incubation with 1 μM compound): 1.47±0.24 ×10^−9V^2

Compound: CC(C)[C@H]1c2ccc(F)cc2CC[C@@]1(CCN(C)CCCc1nc2ccccc2[nH]1)OC(=O)C1CC1 [NNC55-0396]
- gamma power after treatment application, relative to Aβ ([2]; 10 μM compound applied after 20 min of 1 μM Aβ): 1.85±0.15 of Aβ

Compound: CCN1CCCC1CNC(=O)c1cc(S(N)(=O)=O)ccc1OC (centres unmarked) [Sulpiride]
- gamma oscillation power ([1]; 1 h incubation with 5 μM compound): 2.23±0.52 ×10^−9V^2

— patent US20210038589A1, “USES, COMPOSITIONS AND METHODS” (priority 2018, published 2021)
